Tests used:
[1] = microsomes
Outline: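 Compounds at 1 uM were incubated in duplicate with dog, rat or human liver microsomes (0.5 mg/mL protein) and an NADPH-regenerating system, sampled at 2, 12, 25, 45 and 65 minutes. Remaining parent was measured by LC/MS/MS, and Clint was calculated from the in vitro t1/2.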

[2] = test system: HIV-1 (IIIB) in MT-4 cells; assay: MT-4 HIV assay; type: cell-based; conditions: Human immunodeficiency virus 1, MT4, 120 h; HIV-1 (IIIB), MT-4 cells, 5 days, Cell Titer Glo; read-out: EC50
Outline: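 MT-4 cells infected with HIV-1 IIIB (1:250 stock dilution) were incubated with 1:3 serially diluted compounds in RPMI with 10% FBS for 5 days at 37 °C. Cell Titer Glo luminescence was the readout. Plates included mock-infected wells, no-drug wells and 5 uM AZT controls.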

SMILES	Human Pred Cl. [1]	Rat. Pred. Cl. [1]	EC50 [2]	Dog. Pred. Cl. ([1]; dog)
COC(=O)N[C@H](C(=O)N[C@@H](Cc1ccc(C#Cc2ccc(N3CC4COCC(C3)N4C3COC3)nc2)cc1)[C@@H](O)CN(Cc1c(F)cc(-c2ccccn2)cc1F)NC(=O)[C@@H](NC(=O)OC)C(C)(C)C(F)(F)F)C(C)(C)C(F)(F)F [Example 179, Methyl ((5S,8S,9S,14S)-11-(2,6-difluoro-4-(pyridin-2-yl)benzyl)-16,16,16-trifluoro-9-hydroxy-15,15-dimethyl-8-(4-((6-(9-(oxetan-3-yl)-3-oxa-7,9-diazabicyclo[3.3.1]nonan-7-yl)pyridin-3-yl)ethynyl)benzyl)-3,6,13-trioxo-5-(1,1,1-trifluoro-2-methylpropan-2-yl)-2-oxa-4,7,11,12-tetraazahexadecan-14-yl)carbamate]	0.33 L/H/kg	0.27 L/H/kg	3.55 nM	
COC(=O)N[C@H](C(=O)N[C@@H](Cc1ccc(C#Cc2ccc(N3CC4CCC(C3)N4C3COC3)nc2)cc1)[C@@H](O)CN(Cc1c(F)cc(-c2ccn(C(F)F)n2)cc1F)NC(=O)[C@@H](NC(=O)OC1COC1)C(C)(C)C)C(C)(C)C(F)(F)F [Example 184, methyl ((2S)-1-(((2S,3S)-4-(1-(4-(1-(difluoromethyl)-1H-pyrazol-3-yl)-2,6-difluorobenzyl)-2-((S)-3,3-dimethyl-2-(((oxetan-3-yloxy)carbonyl)amino)butanoyl)hydrazinyl)-3-hydroxy-1-(4-((6-(8-(oxetan-3-yl)-3,8-diazabicyclo[3.2.1]octan-3-yl)pyridin-3-yl)ethynyl)phenyl)butan-2-yl)amino)-4,4,4-trifluoro-3,3-dimethyl-1-oxobutan-2-yl)carbamate]	<0.11 L/H/kg	<0.18 L/H/kg	3.66 nM	
CCC(=O)N[C@H](C(=O)NN(Cc1c(F)cc(-c2ccn(C(F)F)n2)cc1F)C[C@H](O)[C@H](Cc1ccc(C#Cc2ccc(N3CC4CCC(C3)N4C3COC3)nc2)cc1)NC(=O)[C@@H](NC(=O)OC)C(C)(C)C(F)(F)F)C(C)(C)C [Example 185, Methyl ((2S)-1-(((2S,3S)-4-(1-(4-(1-(difluoromethyl)-1H-pyrazol-3-yl)-2,6-difluorobenzyl)-2-((S)-3,3-dimethyl-2-propionamidobutanoyl)hydrazinyl)-3-hydroxy-1-(4-((6-(8-(oxetan-3-yl)-3,8-diazabicyclo[3.2.1]octan-3-yl)pyridin-3-yl)ethynyl)phenyl)butan-2-yl)amino)-4,4,4-trifluoro-3,3-dimethyl-1-oxobutan-2-yl)carbamate]	0.32 L/H/kg	0.31 L/H/kg	2.58 nM	
COC(=O)N[C@H](C(=O)N[C@@H](Cc1ccc(C#Cc2cnc(N3CC4CCC(C3)N4C3COC3)nc2)cc1)[C@@H](O)CN(Cc1c(F)cc(-c2ccn(C(F)F)n2)cc1F)NC(=O)[C@@H](NC(=O)C1CC1)C(C)(C)C(F)(F)F)C(C)(C)C(F)(F)F [Example 186, Methyl ((2S)-1-(((2S,3S)-4-(2-((S)-2-(cyclopropanecarboxamido)-4,4,4-trifluoro-3,3-dimethylbutanoyl)-1-(4-(1-(difluoromethyl)-1H-pyrazol-3-yl)-2,6-difluorobenzyl) hydrazinyl)-3-hydroxy-1-(4-((2-(8-(oxetan-3-yl)-3,8-diazabicyclo[3.2.1]octan-3-yl)pyrimidin-5-yl)ethynyl)phenyl)butan-2-yl)amino)-4,4,4-trifluoro-3,3-dimethyl-1-oxobutan-2-yl)carbamate]	<0.11 L/H/kg		4.74 nM	
COC(=O)N[C@H](C(=O)NN(Cc1c(F)cc(-c2ccn(C(F)F)n2)cc1F)C[C@H](O)[C@H](Cc1ccc(-c2cnc(N3CC4CCC(C3)N4C3COC3)nc2)cc1)NC(=O)[C@@H](NC(=O)OC)C(C)(C)C(F)(F)F)C(C)(C)C [Example 192, methyl ((5S,8S,9S,14S)-11-(4-(1-(difluoromethyl)-1H-pyrazol-3-yl)-2,6-difluorobenzyl)-9-hydroxy-15,15-dimethyl-8-(4-(2-(8-(oxetan-3-yl)-3,8-diazabicyclo[3.2.1]octan-3-yl)pyrimidin-5-yl)benzyl)-3,6,13-trioxo-5-(1,1,1-trifluoro-2-methylpropan-2-yl)-2-oxa-4,7,11,12-tetraazahexadecan-14-yl)carbamate]	0.22 L/H/kg	0.36 L/H/kg	2.89 nM	1.04 L/H/kg
COC(=O)N[C@H](C(=O)N[C@@H](Cc1ccc(-c2ccc(N3CC4CCC(C3)N4C3COC3)nc2)cc1)[C@@H](O)CN(Cc1c(F)cc(-c2ccn(CC(F)F)n2)cc1F)NC(=O)[C@@H](NC(=O)OC)C(C)(C)C(F)(F)F)C(C)(C)C(F)(F)F [Example 195, methyl ((5S,8S,9S,14S)-11-(4-(1-(2,2-difluoroethyl)-1H-pyrazol-3-yl)-2,6-difluorobenzyl)-16,16,16-trifluoro-9-hydroxy-15,15-dimethyl-8-(4-(6-(8-(oxetan-3-yl)-3,8-diazabicyclo[3.2.1]octan-3-yl)pyridin-3-yl)benzyl)-3,6,13-trioxo-5-(1,1,1-trifluoro-2-methylpropan-2-yl)-2-oxa-4,7,11,12-tetraazahexadecan-14-yl)carbamate]	0.12 L/H/kg	0.52 L/H/kg	2.76 nM	
COC(=O)N[C@H](C(=O)N[C@@H](Cc1ccc(-c2cnc(N3CC4CCC(C3)N4C3COC3)nc2)cc1)[C@@H](O)CN(Cc1c(F)cc(-c2ccn(CC(F)F)n2)cc1F)NC(=O)[C@@H](NC(=O)OC)C(C)(C)C(F)(F)F)C(C)(C)C(F)(F)F [Example 197, Methyl ((5S,8S,9S,14S)-11-(4-(1-(2,2-difluoroethyl)-1H-pyrazol-3-yl)-2,6-difluorobenzyl)-16,16,16-trifluoro-9-hydroxy-15,15-dimethyl-8-(4-(2-(8-(oxetan-3-yl)-3,8-diazabicyclo[3.2.1]octan-3-yl)pyrimidin-5-yl)benzyl)-3,6,13-trioxo-5-(1,1,1-trifluoro-2-methylpropan-2-yl)-2-oxa-4,7,11,12-tetraazahexadecan-14-yl)carbamate]	<0.11 L/H/kg	0.32 L/H/kg	2.61 nM	
COC(=O)N[C@H](C(=O)N[C@@H](Cc1ccc(-c2cnc(N3CC4CCC(C3)N4C3COC3)nc2)cc1)[C@@H](O)CN(Cc1c(F)cc(-c2ccn(C3CC3)n2)cc1F)NC(=O)[C@@H](NC(=O)OC)C(C)(C)C(F)(F)F)C(C)(C)C(F)(F)F [Example 198, methyl ((5S,8S,9S,14S)-11-(4-(1-cyclopropyl-1H-pyrazol-3-yl)-2,6-difluorobenzyl)-16,16,16-trifluoro-9-hydroxy-15,15-dimethyl-8-(4-(2-(8-(oxetan-3-yl)-3,8-diazabicyclo[3.2.1]octan-3-yl)pyrimidin-5-yl)benzyl)-3,6,13-trioxo-5-(1,1,1-trifluoro-2-methylpropan-2-yl)-2-oxa-4,7,11,12-tetraazahexadecan-14-yl)carbamate]	<0.11 L/H/kg	0.33 L/H/kg	2.19 nM	
COC(=O)N[C@H](C(=O)N[C@@H](Cc1ccc(-c2ccc3nc(N4CC5CCC(C4)N5C4COC4)ccc3n2)cc1)[C@@H](O)CN(Cc1c(F)cc(-c2ccn(C(F)F)n2)cc1F)NC(=O)[C@@H](NC(=O)OC)C(C)(C)C(F)(F)F)C(C)(C)C(F)(F)F [Example 200, Methyl ((5S,8S,9S,14S)-11-(4-(1-(difluoromethyl)-1H-pyrazol-3-yl)-2,6-difluorobenzyl)-16,16,16-trifluoro-9-hydroxy-15,15-dimethyl-8-(4-(6-(8-(oxetan-3-yl)-3,8-diazabicyclo[3.2.1]octan-3-yl)-1,5-naphthyridin-2-yl)benzyl)-3,6,13-trioxo-5-(1,1,1-trifluoro-2-methylpropan-2-yl)-2-oxa-4,7,11,12-tetraazahexadecan-14-yl)carbamate]	<0.11 L/H/kg	0.19 L/H/kg	4.36 nM	
COC(=O)N[C@H](C(=O)N[C@@H](Cc1ccc(-c2cnc(N3CC4CCC(C3)N4C3COC3)nc2)cc1)[C@@H](O)CN(Cc1c(F)cc(-c2ncccn2)cc1F)NC(=O)[C@@H](NC(=O)OC)C(C)(C)C(F)(F)F)C(C)(C)C(F)(F)F [Example 201, Methyl ((5S,8S,9S,14S)-11-(2,6-difluoro-4-(pyrimidin-2-yl)benzyl)-16,16,16-trifluoro-9-hydroxy-15,15-dimethyl-8-(4-(2-(8-(oxetan-3-yl)-3,8-diazabicyclo [3.2.1]octan-3-yl)pyrimidin-5-yl)benzyl)-3,6,13-trioxo-5-(1,1,1-trifluoro-2-methylpropan-2-yl)-2-oxa-4,7,11,12-tetraazahexadecan-14-yl)carbamate]	0.27 L/H/kg	0.49 L/H/kg	2.67 nM	
